Test results: patent publication US7754480B2, “Method of isolating stem cells” (Duke University, priority 1998, dated 2010)

Columns and labels:
ALDH in UCB cells = assay: BAAA staining of mononuclear umbilical cord blood (UCB) cells, flow cytometry; format: cell-based, human
Experimental: Human umbilical cord blood (UCB), intended for disposal, was collected into sterile bottles containing anticoagulant citrate buffer. The UCB used in these studies were processed within 24 hours of being harvested. White cells were enriched through a preliminary red cell agglutination where the UCB was diluted 1:2 with Dulbecco's phosphate buffered saline (PBS) at room temperature. These cells were then brought to a final concentration of 1% Hespan (DuPont Pharma, Wilmington, Del.) and were left to stand undisturbed for 1 hour. Non-agglutinated white blood cells were harvested and residual red cells were hemolysed at 37° C. in 0.17 M NH4Cl containing 10 mM Tris-HCl, pH 7.2 and […] EDTA. The recovered cells were washed in IMDM containing 2% FCS and mononuclear cells are then purified using Ficoll-Hypaque (1.077 g/ml). When held overnight, the cells were kept on ice in a 4° C. refrigerated room in IMDM with 20% FCS.
Mononuclear UCB cells were resuspended at 10^6 cells/ml in IMDM containing 2% FCS and were labeled with 1 μM BAAA for 30 min. When used, verapamil was included at […]. After staining, the cells were washed with ice cold staining media and maintained on ice until their analysis and sorting. The cells were then resuspended in staining media with […] 7-aminoactinomycin D (7AAD) (Molecular Probes; Eugene, OR). For antibody staining to permit multiparameter analyses, the cells were resuspended in staining media (100 μl) and antibodies were added directly to the cell suspensions. The cells were incubated on ice for 20 min. and then washed again in ice cold staining media. The cells were then analyzed or sorted on a FAC Star Plus cell sorter (BDIS) equipped with dual Coherent I -90 argon-dye laser. The BAAA was excited at 488 nm and emissions were detected using 515 DF20filter in FL1. Dead and dying cells were excluded on the basis of their high emission in the far red wavelength due to their uptake of 7AAD.
Umbilical Cord Blood (UCB) was chosen for its increasing promise as a source for transplantable hematopoietic stem cells. […]

ALDH in L1210/cpa cells = assay: BAAA staining of cyclophosphamide-resistant ALDH+ L1210/cpa cells, flow cytometry; format: cell-based, murine
Source text: (§1) FIGS. 1A-1D. BAAA staining identifies cells with high levels of ALDH activity. L1210/cpa is a derivative of the L1210 leukemic cell line that overexpresses ALDH. (FIGS. 1A and 1B represent L1210 cells, plus DEAB and minus DEAB, respectively; FIGS. 1C and 1D represent L1210/cpa cells, plus and minus DEAB, respectively).
(§2) K562, L1210 and L1210/cpa cells (ATCC) were maintained in suspension in RPMI 1640 media supplemented with 10% Fetal Calf Serum (FCS) and 5×10^−5 M β-mercaptoethanol.
(§3) To assay whether BAAA would permit the specific selection of ALDH^+ cells, studies initially determined an optimal response dose for the BAAA reagent in a murine cell line previously selected for cylophoshamide-resistance, L1210/cpa, that is known to be ALDH^+ (FIG. 1). The parental cell line, L1210 (FIGS. 1A and 1B) is cylophosphamide-sensitive and ALDH^−. […] In these studies, the BAAA could be used at a final concentration as low as 5 μM. This molar concentration is 10-fold lower than that used with the dansylated reagent.

[1] = test system: human ALDH1 in K562 cells; assay: BAAA staining of K562 cells expressing ALDH1; format: cell-based
Experimental: as §2
Multiple different ALDH isoenzymes exist and these may display different abilities to convert BAAA. […] Therefore, a human cell line known to express ALDH1, K562, was assayed with this novel reagent.

[2] = Solubility and membrane permeability of the aldehyde reagent (BAAA); format: physicochemical
Experimental: Due to the inherent instability of aldehydes in aqueous solution, the reagent is prepared and stored as an acetal. […] Intracellular fluorescence can be used to select cells.

L1210 cells = assay: BAAA staining of parental ALDH- L1210 cells, flow cytometry; format: cell-based, murine; details: cyclophosphamide-sensitive parental L1210
Source text: as §1, §2, §3

[3] = test system: MDR efflux pump in UCB cells; assay: Efflux of converted BAAA from UCB cells with or without verapamil; details: product of the ALDH conversion of BAAA
Experimental: When used, verapamil was included at 50 mM. After staining, the cells were washed with ice cold staining media and maintained on ice until their analysis and sorting. The cells were then resuspended in staining media with 10 mg/ml 7-aminoactinomycin D (7AAD) (Molecular Probes; Eugene, OR). For antibody staining to permit multiparameter analyses, the cells were resuspended in staining media (100 μl) and antibodies were added directly to the cell suspensions. The cells were incubated on ice for 20 min. and then washed again in ice cold staining media. The cells were then analyzed or sorted on a FAC Star Plus cell sorter (BDIS) equipped with dual Coherent I -90 argon-dye laser. […] Dead and dying cells were excluded on the basis of their high emission in the far red wavelength due to their uptake of 7AAD.
Since this reagent had never been previously characterized, the susceptibility of converted BAAA to MDR efflux was assayed. Although BODIPY aminoacetaldehyde passes through the cell membrane without active transport, the product of the ALDH conversion (BODIPY aminoacetate) might well be a substrate for the MDR pump.

[4] = Stability of BODIPY aminoacetaldehyde diethyl acetal on storage and in 1 N HCl; format: physicochemical
Experimental: The aldehyde dehydrogenase substrate is prepared as BODIPY aminoacetaldehyde diethyl acetal and lyophilized in 0.5 micromole aliquots. […] The acetal is then solubilized in DMSO to a final concentration of 5 mM. […] To convert the acetal to an acetaldehyde, aliquots of this solution are brought to a final concentration of 1 N HCl. […] After 2 hours in 1 N HCl, the vast majority of the BODIPY aminoacetaldehyde diethyl acetal has converted to BODIPY aminoacetaldehyde (BAAA), and is then diluted to […] in Dulbecco's phosphate buffered saline (PBS). This stock is added directly to cells prepared in Iscove's Modified Dulbecco's Medium (IMDM) with 2% FCS at concentrations ranging from 1 to 5 μM.)(See also FIG. 6.).

[5] = test system: human hematopoietic cells; assay: Preliminary DAAA staining of human hematopoietic cells, flow cytometry; format: cell-based; details: signal intensity too high in flow cytometry
Source text: Preliminary studies using DAAA indicate that this reagent is unusable on preparations of human hematopoietic cells because the signal intensity of the reagent is too high to resolve discrete cell populations by flow cytometry. The present invention provides a fluorescent ALDH substrate that is free of the problems associated with DAAA and that can be used in the purification of primitive human hematopoietic cells.

In the case of Cc1cc(C)n2c1C=C1C=CC(CCC(=O)NCC=O)=[N+]1[B-]2(F)F [BAAA, BODIPY aminoacetaldehyde], the “molar concentration relative to dansyl aminoacetaldehyde (fold lower)” value (ALDH in UCB cells; 1 μM BAAA vs concentration of DAAA used for murine PHSC) was 50 fold, the “optimal concentration for resolving ALDH^br subpopulations” value (ALDH in UCB cells; UCB cells 10^6 cells/ml, IMDM 2% FCS) was 1 µM and the “molar concentration relative to the dansylated reagent (fold lower)” value (ALDH in L1210/cpa cells; 5 μM BAAA vs dansylated reagent) was 10 fold. For the same compound, the “detection of ALDH+ cells” value (ALDH in L1210/cpa cells; L1210/cpa) was “able to detect ALDH^+ cells”, the “lowest usable final concentration” value (ALDH in L1210/cpa cells; continuous cell lines) was 5 µM and the “conversion of BAAA / ALDH positivity” value [1] was “positive for ALDH”. The “solubility in PBS” value [2] was “freely soluble” and the “fluorescent response to BAAA” value (L1210 cells) was “essentially no response”.
With CC1=CC(C)=[N+]2C1=Cc1ccc(CCC(=O)NCC(=O)O)n1[B-]2(F)F [BODIPY Aminoacetate, BODIPY aminoacetate] the “substrate status for the MDR efflux pump” value [3] was “Substrate for the MDR Efflux Pump”.
With CCOC(CNC(=O)CCC1=[N+]2C(=Cc3c(C)cc(C)n3[B-]2(F)F)C=C1)OCC [BODIPY aminoacetaldehyde diethyl acetal] the “stability of solution in DMSO” value ([4]; 5 mM in DMSO at 4° C.) was “up to 1 week”, the “half life of the acetal” value ([4]; 1 N HCl, conversion to the acetaldehyde) was 15 min and the “stability of lyophilized aliquots” value ([4]; lyophilized 0.5 micromole aliquots stored at -20° C.) was “stable indefinitely”.
For CN(C)c1cccc2c(S(=O)(=O)NCC=O)cccc12 [DAAA, dansyl aminoacetaldyde], the “usability for resolving discrete cell populations” value [5] was “unusable”.
With CCN(CC)c1ccc(C=O)cc1 [DEAB, diethylbenzaldehyde, reference compound] the “inhibition of the BAAA response” value (ALDH in UCB cells; excess DEAB, UCB cells) was “inhibited”, the “block of the BAAA fluorescent response” value (ALDH in L1210/cpa cells; 10-fold molar excess of DEAB, L1210/cpa) was “totally blocked” and the “inhibition of the BAAA response” value [1] was “entirely inhibited”.
